Source: patent publication US4565774A, “Method for the formation of dye image” (priority 1981, dated 1986)
Where two headings read alike, the source gives them in different places.

Assay: acid dissociation constant (Ka) of the added compound, measured at a normal temperature
Format: physicochemical
Protocol: The acid dissociation constant value is what was measured at a normal temperature, and is described in, e.g., the annex vol. 2 to the "Dai Yuki-Kagaku (Complete Organic Chemistry)" (published by Asakura Publishing Co., Ltd.), "The Theory of Photographic Process" written by T. H. James, 4th ed. (Published by McMillan), and the like. For the measurement of the acid dissociation constant there are several methods, and reference may be made to, e.g., the "Jikken Kagaku Koza (Course of Experimental Chemistry)" vol. 11, second series, (published by Maruzen Co., Ltd.) pp. 524 to 552, and the like.
To the above-prepared developer was added each of the compounds as given in Table 1 to thereby prepare color developers [A] to [M].

[1] = normal temperature, read-out: acid dissociation constant (Ka) (converted)

Row | SMILES | pKa [1] | pKa
1 | Cc1cc(O)n2ncnc2n1 [Comparative compound (2), 4-hydroxy-6-methyl-1,3,3a,7-tetrazaindene] | 6.49 | –
2 | c1c[nH]cn1 [Comparative compound (1), Imidazole] | 7.2 | –
3 | c1ccc2[nH]cnc2c1 [Exemplified compound S-1] | 11.7 | –
4 | Sc1nnnn1-c1ccccc1 [Comparative compound (3), 1-phenyl-5-mercaptotetrazole] | 3.34 | –

Next, values leading:

Row | pKa [1] | pKa | SMILES
5 | 10.3 | – | CCCc1ccc2nc[nH]c2c1 [Exemplified compound S-5]
6 | – | 9.8 | Nc1ncnc2nc[nH]c12 [Exemplified compound S-11]
